Measured values: a melting point compilation (Tetko et al.; mined from patent text by program, amines drawn as free bases though some values may be those of a salt)

| melting point [°C] | SMILES |
| --- | --- |
| 167 to 168 | Cc1oc(-c2ccco2)nc1COc1ccc(COc2ccccc2CC(=O)O)cc1 |
| 72 to 74 | CCc1nn(C2CCCC2)c2cc(-c3ccccc3)ccc12 |
| 115 to 119 | Cc1noc(C)c1C(=O)Nc1ccc(-n2nc(C3CC3)cc2C2CC2)cc1 |
| 76 to 79 | Cc1c(-c2ccccc2)nn(C(C)C(=O)N(C)C)c1C (stereo unspecified) |
| 80 to 81 | CC(C)n1nc(-c2cccc(Cl)c2)c2ncccc2c1=O |
| 62 to 63 | CCCCCCCCC1N(C)c2cccc3cccc(c23)N1C |
| 132 to 134 | O=C1Nc2ccc(F)cc2C1CCCCN1CCN(c2ccccn2)CC1 (stereo unspecified) |
| 133 to 134 | O=C(O)c1ccc(Oc2nccs2)c(F)c1 |
| 212 to 214 | Cc1ccc(-c2cc3c(n2-c2ccc(O)c(C(=O)O)c2)CCCC3)cc1 |
| 146 to 148 | NC(=O)c1[nH]c2ccccc2c1-c1ccc(NC(=O)Nc2ccccc2F)cc1 |
| 61 to 62 | CCCCCNC(=O)N(C)c1cccc(-c2ccc(CCC(=O)O)cc2OCCOCC)c1 |
| 269 | CC(C)(CO)NS(=O)(=O)c1cccc(NC(=O)c2cnn3c(C(F)(F)F)cc(-c4ccc(Cl)c(Cl)c4)nc23)c1 |
| 264 to 265 | Cc1c(C(=O)c2cccnc2)sc2ccc(C(=O)O)cc12 |
| 126 | O=C(N[C@@H](Cc1ccccc1)C(=O)O)OCC(Cl)(Cl)Cl |
| 245 | COc1ccc(-c2nc(N)ncc2-c2ccc(=O)n(C)n2)cc1F |
| 187 | C[Si](C)(C)CCCOc1ccc(C(=O)O)c(O)c1 |
| 290 to 305 | CCOC(=O)c1cc2c(cn1)[nH]c1ccc(C(C)=O)cc12 |
| 134 to 135 | COc1ccc(/C=C/C=C/C(=O)O)cc1 |
| 169 to 172 | CC(C)(C)OC(=O)NN=Cc1ccc(-c2ccccn2)cc1 |
| 150 to 152 | COc1ccccc1N1CCN(CCOc2ccc(-c3cn4cccnc4n3)cc2)CC1 |
| 194 to 196 | O=C(Oc1ccc([N+](=O)[O-])cc1)c1cccc2c(Cl)c3ccccc3nc12 |
| 233 | CCCCc1cnc2ccccc2c1Cc1ccc(C(=O)O)cc1 |
| 93 to 95 | CCNC(=O)c1ccncc1 |
| 251 to 252 | O=C(O)COc1cc2c(c(Cl)c1Cl)C(=O)C(c1ccccc1)(c1ccccc1)C2 |

| melting point [°C] | SMILES |
| --- | --- |
| > 220 | CCOC(=O)NN(C(=O)OCC)C1(c2ccc3c(c2)OCO3)C(=O)N(Cc2ccc(Cl)cc2)c2ccccc21 (stereo unspecified) |
| 101 to 103 | O=C(CS(=O)(=O)c1ccccc1)c1ccccn1 |
| > 250 | Cn1nc(-c2nc(C(N)=O)c(N)nc2-c2ccccc2)ccc1=O |
| 132 to 134 | CC(C(=O)N(C)C)n1nc(-c2ccccc2)c(Br)c1Br (stereo unspecified) |
| 148 to 150 | COc1ccc2cc(O)c(C(C)(C)O)cc2c1 |
| 74 to 77 | COc1ccc(C=CC=O)cc1OC |
| 228 to 230 | COC(=O)Nc1cn2nc(OCc3cc(OC)ccc3OC)ccc2n1 |
| 77.1 to 77.8 | CCOC(=O)Cn1nc(-c2ccc(OC)cc2)cc(C(=O)OCC)c1=O |
| 84 to 86 | CCc1ccc(-c2ccc(C(C)=S)cc2)cc1 |
| 159 to 161 | Clc1nccc(-n2ccc3c(SCc4ccccc4)cccc32)n1 |
| 119 to 122 | CC(=O)Oc1ccc(C=C2CCCc3cc(C)cnc32)cc1 |
| 127 to 128 | CCOC(=O)c1ccc(-c2nnc(-c3ccccc3[N+](=O)[O-])o2)cc1 |
| 170 to 179 | CCOC(=O)c1cnc2ccc3nc(S(C)(=O)=O)sc3c2c1Cl |
| 192 to 193 | O=C1C=C(Oc2ccc(-c3ccccc3)cc2)C(O)O1 (stereo unspecified) |
| 153 to 154 | COc1cc(NCc2ccccc2C)ccc1C(=O)N1CCCC(CC(=O)N2CCN(C)CC2)c2cc(Cl)ccc21 (stereo unspecified) |
| 183 to 184 | CCCCCCOc1ccc(N=C(NC#N)NCCC(C)(C)C)cc1 |
| 153 to 154 | O=Cc1ccc(COC(=O)Nc2cccc3ccccc23)cc1 |
| 151 to 153 | ON=C(Cc1ccccc1)c1ccccn1 |
| 179 to 181 | NS(=O)(=O)c1ccc(NC(=O)CNc2ccccc2)c(Br)c1 |
| 164 | CCOc1ccc2c(c1)n(C1CCCCC1)c(=O)n2Cc1ccc(C(=O)NC(C)(C)CC)cc1OC |
| 62 | CN1CCC(OC(c2cccc(SCC3=NCCN3)c2)c2nc3ccccc3[nH]2)CC1 (stereo unspecified) |
| 50 to 60 | Cc1noc(NS(=O)(=O)c2ccccc2-c2ccc(-c3ncco3)cc2CN(Cc2ccccc2)CC(F)(F)F)c1C |
| 205 to 208 | O=S(=O)(Nc1cccc(Br)n1)c1cc(S(=O)(=O)Nc2cccc(Br)n2)c2ccccc2c1 |
| 227 to 229 | COc1cccc(CNC(=O)c2nc3ccc(F)c(OCCc4ccc(C(=O)O)cc4)c3c(=O)[nH]2)c1 |

Continued, compound first:

| SMILES | melting point [°C] |
| --- | --- |
| CNC(=O)N(O)C(C)c1cc(C(C)(C)C)c(O)c(C(C)(C)C)c1 (stereo unspecified) | 159 to 160 |
| COc1nc2c(cc1NC(=S)N1CCN(c3cc(C)cc(C)c3)CC1)CCC2 | 159 to 161 |
| CCCCS(=O)CCCNc1cc2oc(=O)[nH]c2cc1F (stereo unspecified) | 116 to 117 |
| CCN(CC)C(=O)NC(C)(CC)N=NC(C)(CC)NC(=O)N(CC)CC (stereo unspecified) | 215 to 220 |
| Cc1cc(=O)oc2nn(Cc3cccc(Cl)c3)c(C)c12 | 148 to 149 |
| Brc1ccc2c(c1)N=C(N1CCN(Cc3ccccc3)CC1)c1cccc3c1N2CC3 | 129 to 131 |
| C#CCOc1nc(Nc2cc(N)cc(C(=O)OC)c2)ncc1Br | 208 to 209 |
| CC(=O)NC(NC(=O)Nc1ccccc1)C(=O)NCc1ccccc1 (stereo unspecified) | 242 |
| CN(c1cc(Cl)ncn1)n1cccc1 | 88 to 89 |
| COc1ccc(Oc2cc(Cl)ccc2[N+](=O)[O-])c(C(=O)O)c1 | 232 to 234 |
| N=C(N)Nc1nc2ccc([N+](=O)[O-])cc2[nH]1 | 305 to 307 |
| N#CCN(CC#N)c1nc(Cl)nc(Cl)n1 | 154 to 158 |
| CS(=O)c1cc(Cl)c(C=O)c(Cl)c1 (stereo unspecified) | 100 to 102 |
| CN(C)C(=O)Nc1cccc(S(N)(=O)=O)c1 | 193 to 194 |
| OC(C=Cc1ccco1)c1cnc2sc3c(n12)CCCCC3 (stereo unspecified) | 177 to 180 |
| Cc1nn(C)c(O)c1C(=O)c1ccc(Cl)c(C)c1Cl | 149 to 150 |
| Cn1c(=O)c(-c2ccc(Cl)cc2Cl)cc2c3cc(-c4nc(CN)cs4)ccc3n(C)c21 | 261 to 266 |
| COc1ccc(CN2CCc3ncccc3C2)cc1OC | 76 to 77 |
| OC(CN1CCN(Cc2ccccc2)CC1)Cn1c2ccc(Br)cc2c2cc(Br)ccc21 (stereo unspecified) | 70 to 75 |
| NS(=O)(=O)c1ccc(-c2cc(F)c(F)cc2-c2ccc3c(c2)OCO3)cc1 | 142 to 143 |
| CC1(C)N=C(c2ccccc2F)c2cc(I)ccc2NC1=O | 212 |
| Fc1cnc(Nc2cccnc2)nc1Nc1ccc2c(c1)OCCO2 | 251 to 253 |
| Cc1nn(C(=O)NC2CCCCC2)c(=O)n1NC(C)C | 92 |
| CC(=O)OCC1OC(Cl)C(N=[N+]=[N-])C(OC(C)=O)C1OC(C)=O (stereo unspecified) | 102 to 104 |
| CCC(C)NC(=O)NCC=CCOc1cc(CN2CCCCC2)ccn1 (stereo unspecified) | 72 to 74 |
| Nc1nc2ccccc2c2c1ncn2CCCCCC(=O)N1CCOCC1 | 166 to 168 |
| C[C@H](Cc1ccc2oc(C(=O)O)cc2c1)NC[C@H](O)c1csc(C(F)(F)F)n1 | 168 to 171 |

| SMILES | melting point [°C] |
| --- | --- |
| COc1cc(N)c(Cl)cc1C(=O)N[C@H]1CCN(CCNc2nccnc2C)C[C@H]1OC (relative stereo) | 170 |
| CC(C)c1ccc(CN(C(=N)N)c2ccc3c4c(cccc24)CC3)cc1 | 153 to 155 |
| CC(C)CCCC(C)C1CCC2C3C=CC4=CC(=O)C5OC5C4(C)C3CCC12C (stereo unspecified) | 107 to 109 |
| C=CS(=O)(=O)CCC(F)(F)C(F)(F)C(F)(F)C(F)(F)C(F)(F)C(F)(F)F | 58 to 60 |
| CCC(Cc1c(I)cc(I)c(NC(=O)CN2CCNCCNCCNCC2)c1I)C(=O)O (stereo unspecified) | 201 |
| CS(=O)(=O)Nc1cc2oc(Br)c(NC=O)c(=O)c2cc1Oc1ccccc1 | 237 to 238 |
| CCCOc1ccc(CCl)cc1-c1nc2c(CCC)nn(C)c2c(=O)[nH]1 | 102 to 104 |
| CC(O)CCCCCCCC(O)c1ccc(OCc2ccccc2)c(OCc2ccccc2)c1 (stereo unspecified) | 66 |
| O=C(O)CCSC1c2ccc(-c3nnn[nH]3)cc2COc2ccc(OCc3ccc4ccccc4n3)cc21 (stereo unspecified) | 151 to 153 |
| O=[N+]([O-])c1cccc2cc(O)c(O)cc12 | 199 to 201 |
| CC(=O)SCCC1(C)C(=O)N2CCCC(C(=O)O)N2C1=O (stereo unspecified) | 142 to 143 |
| Cc1cc(O)c(N)c([N+](=O)[O-])c1C | 176 to 178 |
| Cc1c(-c2cnccn2)sc2nc(N)[nH]c(=O)c12 | 280 to 300 |
| Clc1c[nH]c2ncnc(N3CCCCC3)c12 | 170 to 172 |
| O=C1CC2SCCCN12 (stereo unspecified) | 145 to 147 |
| Cc1cc(C(=O)N2Cc3ccc(C(=O)O)n3Cc3ccccc32)ccc1-c1ccccc1C(F)(F)F | 127 to 130 |
| CCCc1c(OCCCOc2c(C(C)=O)ccc(OCC(=O)OCC)c2CCC)ccc(C(C)=O)c1O | 45 to 46 |
| CCCc1c(OCC2Cc3c(ccc(C(C)=O)c3O)O2)ccc(C(C)=O)c1O (stereo unspecified) | 104 to 106 |
| CS(=O)(=O)N(c1nc(CN2CCN(C(c3ccccc3)c3ccccc3)CC2)cs1)S(C)(=O)=O | 167 to 168 |
| CCCCS(=O)(=O)NC(=O)N1CC1C#N (stereo unspecified) | 80 to 85 |
| CCc1c(C(=O)C(N)=O)c2c(OCC(=O)NOCc3ccccc3)cccc2n1Cc1ccccc1 | 167 to 169 |
| CCN1CCN(Cc2ccc3c(c2)Cc2c(-c4cccs4)n[nH]c2-3)CC1 | 170 |
| COc1cc(OC)nc(NC(=O)CC(F)=C(F)F)n1 | 127 to 130 |
| CCCCCCCCCCCCCCCCOCC(CO)Oc1ccon1 (stereo unspecified) | 50 to 51 |
| CN1CCC(OC2c3ccccc3CCn3c2nc(I)c3I)CC1 (stereo unspecified) | 163 |
| CN(CC(=O)[C@H](Cc1ccccc1)NC(=O)NC1CCCCC1)C(=O)N1CCC[C@H]1C(=O)O | 75 to 110 |
